Measured values taken from PubChem BioAssay AID2060889 (Molecular Pharmacology Branch, DTP, NCI, 2025).
pIC50: −log10 of the molar value.

Test system: LG0567-F671-PDC complex spheroids viability
Experiment: Anticancer human tumor LG0567-F671-PDC patient-derived lung adenocarcinoma cell line growth inhibition [RAS]
Details: for pIC50: curve of first compound; for viability, T/C: stronger effect = lower value
How it was run: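 Multi-cell-type spheroids: tumor cells plus HUVEC endothelial cells and mesenchymal stem cells. RAS-pathway inhibitors were combined with targeted agents, each dosed in half-log steps down from clinical Cmax, or from 10 microM when Cmax was unknown.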
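Further: spheroids exposed to compound for seven days before readout.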
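Wherever pIC50 is given: luminescence signal used as a proxy for viable cells.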

CC1(C)CCC(Nc2ncc(C(F)(F)F)c(-c3c[nH]c4c(P(C)(C)=O)c(C#N)ccc34)n2)CN1 (stereo not given) + C=CC(=O)N1CCN(c2nc(OCC3CCCN3C)nc3c(F)c(-c4nc(N)cc(C)c4C(F)(F)F)c(Cl)cc23)C(C)C1
pIC50 (second compound 0.00316 µM): > 9.02 | pIC50 (second compound 0.01 µM): > 9.02 | pIC50 (second compound 0.0316 µM): > 9.02 | pIC50 (second compound 0.1 µM): > 9.02 | pIC50 (second compound 0.316 µM): > 9.02 | pIC50 (second compound 1 µM): > 9.02 | viability, T/C (second compound 0.00316 µM, first compound 0.000949 µM): 12.2% | viability, T/C (second compound 0.00316 µM, first compound 0.003 µM): 11.3% | viability, T/C (second compound 0.00316 µM, first compound 0.00949 µM): 11.2% | viability, T/C (second compound 0.00316 µM, first compound 0.03 µM): 13.6% | viability, T/C (second compound 0.00316 µM, first compound 0.0949 µM): 12.2% | viability, T/C (second compound 0.00316 µM, first compound 0.3 µM): 11.8% | viability, T/C (second compound 0.01 µM, first compound 0.000949 µM): 11.9% | viability, T/C (second compound 0.01 µM, first compound 0.003 µM): 10.2% | viability, T/C (second compound 0.01 µM, first compound 0.00949 µM): 10.1% | viability, T/C (second compound 0.01 µM, first compound 0.03 µM): 10.1% | viability, T/C (second compound 0.01 µM, first compound 0.0949 µM): 13% | viability, T/C (second compound 0.01 µM, first compound 0.3 µM): 12.4% | viability, T/C (second compound 0.0316 µM, first compound 0.000949 µM): 9.75% | viability, T/C (second compound 0.0316 µM, first compound 0.003 µM): 9.55% | viability, T/C (second compound 0.0316 µM, first compound 0.00949 µM): 10.2% | viability, T/C (second compound 0.0316 µM, first compound 0.03 µM): 11.2% | viability, T/C (second compound 0.0316 µM, first compound 0.0949 µM): 10.7% | viability, T/C (second compound 0.0316 µM, first compound 0.3 µM): 10.8% | viability, T/C (second compound 0.1 µM, first compound 0.000949 µM): 10.9% | viability, T/C (second compound 0.1 µM, first compound 0.003 µM): 9.77% | viability, T/C (second compound 0.1 µM, first compound 0.00949 µM): 10.7% | viability, T/C (second compound 0.1 µM, first compound 0.03 µM): 10.9% | viability, T/C (second compound 0.1 µM, first compound 0.0949 µM): 11.5% | viability, T/C (second compound 0.1 µM, first compound 0.3 µM): 10.2% | viability, T/C (second compound 0.316 µM, first compound 0.000949 µM): 10% | viability, T/C (second compound 0.316 µM, first compound 0.003 µM): 9.73% | viability, T/C (second compound 0.316 µM, first compound 0.00949 µM): 10.6% | viability, T/C (second compound 0.316 µM, first compound 0.03 µM): 10.2% | viability, T/C (second compound 0.316 µM, first compound 0.0949 µM): 12.2% | viability, T/C (second compound 0.316 µM, first compound 0.3 µM): 11.4% | viability, T/C (second compound 1 µM, first compound 0.000949 µM): 10.2% | viability, T/C (second compound 1 µM, first compound 0.003 µM): 11% | viability, T/C (second compound 1 µM, first compound 0.00949 µM): 10.4% | viability, T/C (second compound 1 µM, first compound 0.03 µM): 11.1% | viability, T/C (second compound 1 µM, first compound 0.0949 µM): 12.4% | viability, T/C (second compound 1 µM, first compound 0.3 µM): 12.3%

NC1c2ccccc2OC12CCN(c1cnc3c(N4CCCc5ncccc54)n[nH]c3n1)CC2 (stereo not given) + C=CC(=O)N1CCN(c2nc(OCC3CCCN3C)nc3c(F)c(-c4nc(N)cc(C)c4C(F)(F)F)c(Cl)cc23)C(C)C1
pIC50 (second compound 0.00316 µM): > 7.50 | pIC50 (second compound 0.01 µM): > 7.50 | pIC50 (second compound 0.0316 µM): > 7.50 | pIC50 (second compound 0.1 µM): > 7.50 | pIC50 (second compound 0.316 µM): > 7.50 | pIC50 (second compound 1 µM): > 7.50 | viability, T/C (second compound 0.00316 µM, first compound 0.0316 µM): 6.27% | viability, T/C (second compound 0.00316 µM, first compound 0.1 µM): 4.36% | viability, T/C (second compound 0.00316 µM, first compound 0.316 µM): 3.09% | viability, T/C (second compound 0.00316 µM, first compound 1 µM): 2.99% | viability, T/C (second compound 0.00316 µM, first compound 3.16 µM): 2.79% | viability, T/C (second compound 0.00316 µM, first compound 10 µM): 3.28% | viability, T/C (second compound 0.01 µM, first compound 0.0316 µM): 5.37% | viability, T/C (second compound 0.01 µM, first compound 0.1 µM): 3.73% | viability, T/C (second compound 0.01 µM, first compound 0.316 µM): 2.99% | viability, T/C (second compound 0.01 µM, first compound 1 µM): 2.89% | viability, T/C (second compound 0.01 µM, first compound 3.16 µM): 2.44% | viability, T/C (second compound 0.01 µM, first compound 10 µM): 2.64% | viability, T/C (second compound 0.0316 µM, first compound 0.0316 µM): 4.86% | viability, T/C (second compound 0.0316 µM, first compound 0.1 µM): 3.54% | viability, T/C (second compound 0.0316 µM, first compound 0.316 µM): 3.04% | viability, T/C (second compound 0.0316 µM, first compound 1 µM): 3.15% | viability, T/C (second compound 0.0316 µM, first compound 3.16 µM): 2.61% | viability, T/C (second compound 0.0316 µM, first compound 10 µM): 3.04% | viability, T/C (second compound 0.1 µM, first compound 0.0316 µM): 5.91% | viability, T/C (second compound 0.1 µM, first compound 0.1 µM): 4.17% | viability, T/C (second compound 0.1 µM, first compound 0.316 µM): 2.81% | viability, T/C (second compound 0.1 µM, first compound 1 µM): 2.78% | viability, T/C (second compound 0.1 µM, first compound 3.16 µM): 3% | viability, T/C (second compound 0.1 µM, first compound 10 µM): 2.64% | viability, T/C (second compound 0.316 µM, first compound 0.0316 µM): 5.55% | viability, T/C (second compound 0.316 µM, first compound 0.1 µM): 3.15% | viability, T/C (second compound 0.316 µM, first compound 0.316 µM): 3.61% | viability, T/C (second compound 0.316 µM, first compound 1 µM): 3.03% | viability, T/C (second compound 0.316 µM, first compound 3.16 µM): 2.75% | viability, T/C (second compound 0.316 µM, first compound 10 µM): 2.78% | viability, T/C (second compound 1 µM, first compound 0.0316 µM): 5.5% | viability, T/C (second compound 1 µM, first compound 0.1 µM): 4.65% | viability, T/C (second compound 1 µM, first compound 0.316 µM): 3.58% | viability, T/C (second compound 1 µM, first compound 1 µM): 3.3% | viability, T/C (second compound 1 µM, first compound 3.16 µM): 3.79% | viability, T/C (second compound 1 µM, first compound 10 µM): 3.5%

C=CC(=O)Nc1cc(Nc2nccc(-c3cn(C)c4ccccc34)n2)c(OC)cc1N(C)CCN(C)C
viability, T/C (compound 0.01 µM): 92.5% [middle of 4 runs] | viability, T/C (compound 0.0316 µM): 86% [middle of 4 runs] | viability, T/C (compound 0.1 µM): 68.7% [middle of 4 runs] | viability, T/C (compound 0.316 µM): 42.7% [middle of 4 runs] | viability, T/C (compound 1 µM): 23.2% [middle of 4 runs] | IC50 (curve of compound): 225 nM [middle of 4 runs]
